Assay results published in ChEMBL document CHEMBL1143461, “Trifluoroethylamines as amide isosteres in inhibitors of cathepsin K” (Bioorg Med Chem Lett, 2005).

Experiments:
Cathepsin K [1] = molecular target: T1, Cathepsin K (Homo sapiens, UniProt P43235); assay: Inhibitory activity against cathepsin K using humanized rabbit enzyme; parameters: species or system Oryctolagus cuniculus
[2] = molecular target: T2, Cathepsin K (Homo sapiens) (UniProt P43235); assay: pKa value determined against cathepsin K from humanized rabbit enzyme; conditions: Oryctolagus cuniculus
T2 sequence (whole entry): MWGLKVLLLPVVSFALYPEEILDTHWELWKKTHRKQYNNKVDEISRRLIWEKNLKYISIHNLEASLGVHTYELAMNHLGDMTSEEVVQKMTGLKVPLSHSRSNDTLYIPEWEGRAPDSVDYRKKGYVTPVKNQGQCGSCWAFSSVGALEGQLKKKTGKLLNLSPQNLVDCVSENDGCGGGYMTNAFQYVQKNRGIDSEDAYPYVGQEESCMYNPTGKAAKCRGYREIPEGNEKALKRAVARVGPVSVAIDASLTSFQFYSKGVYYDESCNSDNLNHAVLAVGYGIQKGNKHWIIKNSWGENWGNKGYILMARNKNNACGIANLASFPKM

Procathepsin L = Procathepsin L (Homo sapiens, UniProt P07711); assay: Inhibitory activity against cathepsin L from human
Cathepsin K [3] = molecular target: T1, Cathepsin K; assay: Inhibitory activity against cathepsin K (10 pM) using humanized rabbit enzyme; parameters: species or system Oryctolagus cuniculus
Cathepsin S = Cathepsin S (Homo sapiens, UniProt P25774); assay: Inhibitory activity against cathepsin S from human
Cathepsin B = Cathepsin B (Homo sapiens, UniProt P07858); assay: Inhibitory activity against cathepsin B from human
Cathepsin K [4] = molecular target: T1, Cathepsin K; assay: Inhibitory activity against cathepsin K from humanized rabbit enzyme; parameters: species or system Oryctolagus cuniculus

Chain of Cathepsin S (P25774 whole entry): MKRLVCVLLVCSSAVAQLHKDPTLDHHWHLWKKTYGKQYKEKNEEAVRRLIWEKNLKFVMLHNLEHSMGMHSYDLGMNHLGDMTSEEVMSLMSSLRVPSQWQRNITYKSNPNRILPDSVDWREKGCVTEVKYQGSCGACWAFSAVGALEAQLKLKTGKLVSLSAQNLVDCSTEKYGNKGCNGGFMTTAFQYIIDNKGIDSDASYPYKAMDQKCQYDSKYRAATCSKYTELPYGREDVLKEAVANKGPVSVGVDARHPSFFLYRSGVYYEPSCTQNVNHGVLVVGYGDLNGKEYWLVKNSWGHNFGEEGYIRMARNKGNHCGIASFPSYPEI
Chain of Procathepsin L (P07711 whole entry): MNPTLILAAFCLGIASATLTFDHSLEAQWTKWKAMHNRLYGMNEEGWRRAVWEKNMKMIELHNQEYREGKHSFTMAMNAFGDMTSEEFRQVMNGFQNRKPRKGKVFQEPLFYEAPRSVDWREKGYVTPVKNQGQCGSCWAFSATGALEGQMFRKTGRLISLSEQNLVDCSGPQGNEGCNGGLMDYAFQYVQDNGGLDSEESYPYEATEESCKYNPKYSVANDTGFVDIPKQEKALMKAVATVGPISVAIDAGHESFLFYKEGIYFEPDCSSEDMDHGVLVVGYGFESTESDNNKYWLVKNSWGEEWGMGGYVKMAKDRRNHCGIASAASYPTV

| SMILES | IC50 (Cathepsin K [1]) [nM] | pKa [2] | IC50 (Procathepsin L) [nM] | IC50 (Cathepsin K [3]) [nM] | IC50 (Cathepsin S) [nM] | IC50 (Cathepsin B) [nM] | IC50 (Cathepsin K [4]) [nM] |
| --- | --- | --- | --- | --- | --- | --- | --- |
| CC(C)C[C@@H](C(=O)NCC#N)c1cccc(-c2ccc(N3CCNCC3)cc2)c1 | 11 |  |  |  |  |  |  |
| CC(C)C[C@H](NC(c1ccc(Br)cc1)c1ccc(S(C)(=O)=O)cc1)C(=O)NCC#N (stereo partly drawn) | 2.5 | 4.6 |  |  |  |  |  |
| CC(C)C[C@H](N[C@@H](c1ccc(-c2ccc(N3CCNCC3)cc2)cc1)C(F)(F)F)C(=O)NCC#N |  |  | 47 | ≤ 0.005 | 451 | 1110 |  |
| N#CCNC(=O)C1(NC(=O)c2ccc(-c3ccc(N4CCNCC4)cc3)cc2)CCCCC1 | 0.4 |  | 2270 |  | > 10000 | 614 |  |
| CC(C)C[C@H](Nc1cscc1-c1ccc(N2CCNCC2)cc1)C(=O)NCC#N | 1 |  |  |  |  |  |  |
| N#CCNC(=O)C1(NC(c2ccc(-c3ccc(N4CCNCC4)cc3)cc2)C(F)(F)F)CCCCC1 (stereo not drawn) | 5 |  | > 10000 |  | > 10000 | > 10000 |  |
| CC(C)CC(NC(c1ccc(-c2ccc(N3CCNCC3)cc2)cc1)C(F)(F)F)C(=O)NCC#N (stereo not drawn) | 4.6 |  | 68 |  | 902 | > 10000 |  |
| CN1CCN(c2nc(-c3ccc(C(=O)NC4(C(=O)NCC#N)CCCCC4)cc3)cs2)CC1 | 0.6 |  | 3900 |  | > 10000 | 1050 |  |

Results, then the compound that gave them:

| IC50 (Cathepsin K [1]) [nM] | pKa [2] | IC50 (Procathepsin L) [nM] | IC50 (Cathepsin K [3]) [nM] | IC50 (Cathepsin S) [nM] | IC50 (Cathepsin B) [nM] | IC50 (Cathepsin K [4]) [nM] | SMILES |
| --- | --- | --- | --- | --- | --- | --- | --- |
| 2.4 | 1.8 |  |  |  |  |  | CC(C)C[C@H](NC(c1ccc(Br)cc1)C(F)(F)C(F)(F)F)C(=O)NCC#N (stereo partly drawn) |
| 802 | 6.7 |  |  |  |  |  | CC(C)C[C@H](NCc1ccc(Br)cc1)C(=O)NCC#N |
| 30 | 0.7 |  |  |  |  |  | CC(C)C[C@H](NC(C#N)c1ccc(Br)cc1)C(=O)NCC#N (stereo partly drawn) |
| 1.3 | 1.3 | 34 |  | 121 | 3350 | 0.9 | CC(C)C[C@H](NC(c1ccc(Br)cc1)C(F)(F)F)C(=O)NCC#N (stereo partly drawn) |
| 988 | 6.7 |  |  |  |  |  | CC(C)C[C@H](NC(C)c1ccc(Br)cc1)C(=O)NCC#N (stereo partly drawn) |
